Laboratory results taken from patent publication US10675286B2, “Heterocyclic compounds and uses thereof” (Infinity Pharmaceuticals, Inc., priority 2014, dated 2020).
Entries after “also recorded” stand apart in the source; their conditions may differ. Where two headings read alike, the source gives them in different places.

Columns and labels:
[1] = tested on: Farage cell line; experiment: Combination isobologram in Farage cell line; format: cell-based; settings: combination of Compound AA and Compound BB
[2] = tested on: CT26 colon cancer; experiment: CT26 colon cancer model; format: in vivo, mouse; settings: CT26 subcutaneous tumors
[3] = Dose-exposure proportionality (FIG. 44); settings: in vivo
[4] = tested on: CXCL12-induced T cell migration; experiment: CXCL12-induced T-cell migration in CLL PBMCs (transwell); format: cell-based; settings: Homo sapiens
Experimental: Specifically, the material used were media (RPMI+0.5% Fetal Bovine Serum+Pen/Strep), total CLL PBMCs (AllCells), CoStar 24-transwell plates ([…]) #3421, BD Cytofix Fixation Buffer (#554655), BD FBS Stain Buffer (BD Biosciences, 554656), Deep 96-well plate (Axygen, P-2ML-SQ-C), rhCXCL12 (R&D, 350-NS-050), CD-19 APC Cy7 (BD #348794 1:20), CD3-PerCPCy5.5 (BD #560835, 1:20), CD5-PE (Biolegend #300608, 1:5), CD4-FITC (BD #561842, 1:20), and CD8-APC (BD #561953, 1:20).
Total CLL human PBMCs were preincubated with Compound AA or BB in media for 45 minutes at 37° C. […] After the 45 minutes of compound preincubation, 500-750K CLL PBMCs were placed in the upper chamber of the transwell insert in a total volume of 100 uL. The cells were allowed to migrate for 2-4 hours at 37° C. The inserts were removed, and 550 uL media from lower chamber were transferred into a deep 96-well plate. The cells were spun at 1280 rpm for 5 minutes and flick media. The cells were resuspended in 400 uL BD Cytofixation buffer and incubated at RT for 10 minutes. 1 mL BD FBS stain buffer was added. The cells were spun at 1280 rpm and fixation buffer was disposed. The cells were resuspended in 100 uL of CD3,4,8,5,19 antibody cocktail made up in BD FBS stain buffer, which was then incubated at room temperature in the dark for 30-60 minutes. 1 mL BD FBS stain buffer was added to each well, which was then spun and flicked. The cells were resuspended in 150 uL FBS stain buffer and transferred to FACS tubes already containing 150 uL FBS stain buffer. Each sample was read on the FACS for 25 seconds. Gate on CD3, 4, 8 and CD19/5 subpopulations individually and calculate average migration index from triplicate samples. See e.g., Borge et al., haematologica 2010, 95(5): 768-775; de Rooij et al., Blood 2012, 119: 2590-2594.

[5] = tested on: RANKL driven differentiation of osteoclasts; experiment: Osteoclast differentiation assay (TRAP) from bone marrow macrophages; format: cell-based, mouse; settings: 6 days
Experimental: Long bones from young C57B6 mice were harvested and bone marrow was extruded by gentle lavage of the bone marrow cavities with a 28 gage needle. The cells were screened, and red blood cells were removed using red blood cell lysis buffer (Sigma). Bone marrow cells were differentiated to macrophages using 20 ng/ml mouse MCSF (RnD systems) for 3 days (RPMI and 20% FCS). The cell were washed with PBS, and lifted with Accutase for 10 minutes.
The bone marrow macrophage cells were plated at 150,000 cells per well in a 96 well plate in a MEM 10% FCS. […] Then 25 ng/ml mouse MCSF with or without mouse RANKL (100 ng/ml, RnD systems) was added for 6 days. Media changes (including drugs) were done at day 3 and day 5. The cells were then fixed and stained with the tartrate resistant acid phosphatase (TRAP) assay kit from Sigma according to the manufactures instructions. TRAP positive cells (osteoclasts and cells undergoing an osteoclastic differentiation) in a transect of the triplicate wells (at 20× […]) were manually counted by going through the widest part of each well.

[6] = tested on: bone marrow cells differentiating into MDSCs; experiment: Myeloid Derived Suppressor Cell differentiation assay (VEGF, ARG1); format: cell-based
Experimental: A similar experiment was performed on bone marrow cells differentiating into MDSCs.

[7] = tested on: MC38 tumor cells; experiment: MC38 colon cancer model; format: in vivo, mouse
Experimental: In this model, a syngeneic colon cancer cell line is run subcutaneously. The experimental setup was as follows.
The cell injection volume was 0.05 ml per mouse. When tumors reached an average size of 80-100 mm^3, a pair match was made and treatment began. The tumor was measured by caliper biweekly.
The dosing volume was 5 mL/kg.
For all animals, blood was collected by terminal cardiac puncture under isoflurane anesthesia. The blood was processed for plasma. In addition, tumor samples were collected.
At study end, tumors were isolated, fixed in 10% neutral buffered formalin and embedded in paraffin for histologic analysis. […] T-cells within the tumor sections were identified utilizing a CD3-specific antibody via automated immunohistochemistry equipment (Ventana). Once stained, slides were digitalized via Aperio slide scanning equipment. Next, stained tumor sections were quantified via Definians software to assess the percentage of CD3 positive cells within each tumor.

[8] = tested on: 4T1 mammary carcinoma; experiment: 4T1 breast cancer model (orthotopic / subcutaneous), tumor growth and IHC; format: in vivo, mouse
Experimental: Plasma is collected for pharmokinetic (PK) analysis.
Luciferin measurements were taken twice a week.
Immunohistochemistry was performed to determine the distribution of immune cells within the tumor. In particular, CD11b myeloid cells were examined, as were regulatory vs. effector T cells (CD3, CD4, CD8, FoxP3).

[9] = Stability in simulated gastric fluid; format: physicochemical; settings: 38° simulated gastric fluid
Excerpt: The phyiscochemical properties of Compound BB are drug-like, and suitable for use of the compound as a drug.

[10] = Oral pharmacokinetics of Compound BB in monkey; format: in vivo; settings: 5 mg/kg oral
Excerpt: Compound BB's oral exposure is high in rat, dog and monkey. Good oral bioavailability and low clearance in rodent and non-rodent animal species results in high oral exposure.

[11] = tested on: GL261-Luc; experiment: GL261-Luc murine glioblastoma subcutaneous model; format: in vivo, mouse; settings: GL-261 syngeneic glioma, 15 mg/kg QD, PO
Excerpt: In some cases, the GL261 glioblastoma model is used. This is a syngeneic glioblastoma multiform model run subcutaneously or orthotopically, and is described in more detail in the examples provided herein. In some embodiments, the model has previously been treated with radiation therapy but there is a recurrence of the cancer. Compounds provided herein can be administered to models with a recurrence or relapse of cancer after prior treatment.

[12] = tested on: GL-261 glioma; experiment: GL-261 glioma model, Compound BB with or without temozolomide; format: in vivo, mouse; settings: Compound BB 15 mg/kg QD PO, from start or following temozolomide, vs vehicle
Experimental: TMZ was dosed IP 1×/day for 7 days.
Animals: C57 Albino mice (male) from Jackson Labs, n=80. Parameters Evaluated:
In life: Mice were dosed QD with Compound BB. Temozolomide was dosed QD IP, for 7 days. Tumor measurements and bodyweights were taken 2×/week, but caliper and xenogen measurements.
End point analysis: Tumors were cut in half. One half was cut in half again with ½ fixed in 10% NBF the other was frozen in OCT for frozen sections. The remaining half was processed to single cell suspention and evaluated by FACS.
PD satellite group—8 mice from the TMZ treated mice and 8 mice from the vehicle treated mice were sacrificed on day 7 post treatment. Tumors were processed to single cell suspention and evaluated by FACS.

[13] = tested on: collagen induced arthritis; experiment: Rat collagen induced arthritis (CIA) model
[14] = orthotopic 4T1, 7.5 mg/kg PO once daily 3 weeks

SMILES: C[C@H](NC(=O)c1c(N)nn2cccnc12)c1cc2cccc(C#Cc3cnn(C)c3)c2c(=O)n1-c1ccccc1 [Compound BB]
- effect of the combination (isobologram) [1]: synergistic effect
- Monocytic iMCs in tumor [2]: decreased
- dose-exposure relationship [3]: dose-exposure proportionality
- EC50 ([4]; T-cell subset CD3+, read-out: EC50 (nM), CXCL12 induced T-cell migration): 17 ± 17 nM
- EC50 ([4]; T-cell subset CD4+, read-out: EC50 (nM), CXCL12 induced T-cell migration): 20 ± 21 nM
- EC50 ([4]; T-cell subset CD8+, read-out: EC50 (nM), CXCL12 induced T-cell migration): 13 ± 15 nM
- EC50 ([4]; read-out: EC50, inhibition of CXCL12-induced CD3+ T cell migration (FIG. 8)): 10 nM
- RANKL driven differentiation of osteoclasts (TRAP positive cells, FIG. 17) [5]: prevents RANKL driven differentiation of osteoclasts
- VEGF and ARG1 in MDSC differentiation assay (FIG. 24) [6]: suppressed both VEGF (FIG. 24A) and ARG1 (FIG. 24B)
- Tumor growth (FIG. 29A) ([7]; MC38, monotherapy): significantly inhibited tumor growth
- Intratumoral CD3+ T cells (FIG. 30) ([7]; MC38 tumors, vs vehicle): significantly more intratumoral CD3+ T cells
- Tumor growth (FIG. 35) ([8]; 4T1, Compound BB alone 15 mg/kg once daily 2 weeks): achieved a reduction in tumor growth
- CD11b+ myeloid cell staining in viable tumor regions (IHC, FIG. 37A) ([8]; 4T1 tumors, day 13, vs vehicle): decrease in CD11b+ myeloid cell staining
- Total luciferase flux (FIG. 33B) [8, 14]: reduced total luciferase flux
- Tumor growth (FIG. 33A) [8, 14]: reduced tumor growth
- Time the anti-tumor effect was maintained after discontinuation of treatment ([8]; subcutaneous 4T1): at least 6 days
- Tumor growth (FIG. 34, FIG. 36) ([8]; subcutaneous 4T1, single agent): demonstrated single agent activity
- Stability in simulated gastric fluid [9]: > 4 h
- Oral exposure (plasma concentrations within 24 hours, FIG. 43) [10]: high
- Total flux (FIG. 47B) [11]: reduced the total flux
- Tumor volume (FIG. 47A) [11]: reduced tumor volume
- Tumor volume (FIGS. 53, 54) [12]: effective in reducing the tumor volume; also recorded: significant reduction in tumor volume
- ED50 ([13]; Rattus norvegicus): 2.13 mg/kg
- Mean ankle diameter (FIG. 1) ([13]; rat CIA, day 9 to day 17): has therapeutic effects
